Laboratory results reported in ChEMBL document CHEMBL3603804, “Cyclin dependent kinase (CDK) inhibitors as anticancer drugs” (Bioorg Med Chem Lett, 2015).

Columns and labels:
[1] = target: T1, Cyclin-dependent kinase 2/cyclin A (Homo sapiens, UniProt P24941); assay: Competitive inhibition of human CDK2/cyclinA using PKTPKKAKKL as substrate in presence of ATP; assay type: protein-complex assay
[2] = target: T2, Cyclin-dependent kinase 4/6 (Homo sapiens, UniProt P11802+Q00534); assay: Inhibition of CDK4/6 in human COLO205 cells assessed as inhibition of Rb phosphorylation after 24 hrs by propidium iodide staining-based laser-scanning fluorescence microplate cytometric analysis; assay type: cell-based; settings: colo 205
T2 sequence (P11802 whole entry, looked up): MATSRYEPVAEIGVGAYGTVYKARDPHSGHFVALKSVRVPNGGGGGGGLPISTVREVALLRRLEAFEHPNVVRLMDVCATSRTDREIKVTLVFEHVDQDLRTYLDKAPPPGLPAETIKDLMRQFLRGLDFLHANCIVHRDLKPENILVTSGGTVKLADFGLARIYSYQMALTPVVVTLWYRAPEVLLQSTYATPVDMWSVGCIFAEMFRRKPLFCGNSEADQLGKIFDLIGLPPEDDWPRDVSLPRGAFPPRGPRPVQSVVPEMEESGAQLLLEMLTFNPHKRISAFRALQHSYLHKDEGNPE
T2 sequence (Q00534 whole entry, looked up): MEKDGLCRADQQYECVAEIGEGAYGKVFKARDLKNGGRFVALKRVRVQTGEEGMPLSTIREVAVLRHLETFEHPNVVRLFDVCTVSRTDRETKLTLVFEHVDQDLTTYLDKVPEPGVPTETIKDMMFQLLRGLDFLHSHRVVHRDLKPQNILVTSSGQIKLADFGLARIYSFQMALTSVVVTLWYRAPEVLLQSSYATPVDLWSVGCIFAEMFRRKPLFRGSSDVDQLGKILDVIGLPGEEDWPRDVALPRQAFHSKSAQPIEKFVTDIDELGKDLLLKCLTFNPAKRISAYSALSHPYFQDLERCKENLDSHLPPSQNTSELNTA

[3] = target: T2, Cyclin-dependent kinase 4/6; assay: Inhibition of CDK4/6 in human COLO205 cells assessed as maximum cell cycle arrest at G1 phase after 24 hrs by propidium iodide staining-based flow cytometric analysis; settings: COLO 205
[4] = target: T3, Cyclin-dependent kinase 4/cyclin D1 (Homo sapiens, UniProt P11802); assay: Inhibition of human CDK4/cyclin D1 expressed in insect cells assessed as phosphorylation of CTRF after 50 mins by microplate scintillation counter
T3 sequence (P11802 whole entry): as the sequence (P11802 whole entry, looked up) above
T3 sequence (P24385 whole entry, further chain): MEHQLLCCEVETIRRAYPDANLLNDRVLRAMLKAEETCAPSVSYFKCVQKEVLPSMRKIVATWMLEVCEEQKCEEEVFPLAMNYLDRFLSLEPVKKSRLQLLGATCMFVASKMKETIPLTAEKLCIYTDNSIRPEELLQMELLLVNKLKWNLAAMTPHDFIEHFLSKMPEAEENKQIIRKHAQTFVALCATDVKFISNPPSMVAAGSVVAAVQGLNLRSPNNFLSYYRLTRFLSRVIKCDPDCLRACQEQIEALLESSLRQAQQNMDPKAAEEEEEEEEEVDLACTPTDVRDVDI

[5] = target: T4, Cyclin-dependent kinase 1/cyclin B1 (Homo sapiens, UniProt P06493); assay type: protein-complex assay
T4 sequence (P06493 whole entry): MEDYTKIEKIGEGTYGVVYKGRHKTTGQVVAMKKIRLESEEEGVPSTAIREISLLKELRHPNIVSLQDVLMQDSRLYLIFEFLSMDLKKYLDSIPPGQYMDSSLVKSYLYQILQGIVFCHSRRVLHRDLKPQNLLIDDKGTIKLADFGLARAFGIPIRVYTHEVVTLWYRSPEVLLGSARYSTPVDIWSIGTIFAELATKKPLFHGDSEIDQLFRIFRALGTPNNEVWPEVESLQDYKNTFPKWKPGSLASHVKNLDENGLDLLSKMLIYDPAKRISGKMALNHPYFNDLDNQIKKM
T4 sequence (P14635 whole entry, further chain): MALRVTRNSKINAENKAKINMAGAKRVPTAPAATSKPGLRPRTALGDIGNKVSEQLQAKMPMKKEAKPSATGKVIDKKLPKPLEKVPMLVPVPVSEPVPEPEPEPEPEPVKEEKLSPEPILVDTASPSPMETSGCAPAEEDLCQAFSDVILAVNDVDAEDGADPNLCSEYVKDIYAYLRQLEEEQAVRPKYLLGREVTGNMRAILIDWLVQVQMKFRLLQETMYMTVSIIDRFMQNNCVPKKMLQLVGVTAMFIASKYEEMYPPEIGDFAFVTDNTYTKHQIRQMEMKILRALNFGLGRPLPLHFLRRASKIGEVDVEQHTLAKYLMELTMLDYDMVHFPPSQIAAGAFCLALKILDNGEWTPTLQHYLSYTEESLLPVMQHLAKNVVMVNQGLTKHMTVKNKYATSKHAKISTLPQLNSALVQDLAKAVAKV
Description: Inhibition of human CDK1/cyclin B1 (unknown origin)

[6] = target: T1, Cyclin-dependent kinase 2/cyclin A; assay: Non-competitive inhibition of human CDK2/cyclinA using PKTPKKAKKL as substrate in presence of ATP; assay type: protein-complex assay
MDA-MB-231 = assay: Cytotoxicity against human MDA-MB-231 cells; assay type: functional, cell-based
[7] = target: T5, Cyclin-dependent kinase 2/cyclin E1 (Homo sapiens, UniProt P24941); assay: Inhibition of recombinant CDK2/GST-fused cyclin E (unknown origin) expressed in baculovirus infected insect Sf9 cells by substrate phosphorylation assay in presence of [33P]-gamma adenosine triphosphate
[8] = target: Vascular endothelial growth factor receptor 2 (Homo sapiens, UniProt P35968); assay: Inhibition of VEGFR2 (unknown origin)
Sequence of Vascular endothelial growth factor receptor 2 (P35968 whole entry, the tested form may be a part): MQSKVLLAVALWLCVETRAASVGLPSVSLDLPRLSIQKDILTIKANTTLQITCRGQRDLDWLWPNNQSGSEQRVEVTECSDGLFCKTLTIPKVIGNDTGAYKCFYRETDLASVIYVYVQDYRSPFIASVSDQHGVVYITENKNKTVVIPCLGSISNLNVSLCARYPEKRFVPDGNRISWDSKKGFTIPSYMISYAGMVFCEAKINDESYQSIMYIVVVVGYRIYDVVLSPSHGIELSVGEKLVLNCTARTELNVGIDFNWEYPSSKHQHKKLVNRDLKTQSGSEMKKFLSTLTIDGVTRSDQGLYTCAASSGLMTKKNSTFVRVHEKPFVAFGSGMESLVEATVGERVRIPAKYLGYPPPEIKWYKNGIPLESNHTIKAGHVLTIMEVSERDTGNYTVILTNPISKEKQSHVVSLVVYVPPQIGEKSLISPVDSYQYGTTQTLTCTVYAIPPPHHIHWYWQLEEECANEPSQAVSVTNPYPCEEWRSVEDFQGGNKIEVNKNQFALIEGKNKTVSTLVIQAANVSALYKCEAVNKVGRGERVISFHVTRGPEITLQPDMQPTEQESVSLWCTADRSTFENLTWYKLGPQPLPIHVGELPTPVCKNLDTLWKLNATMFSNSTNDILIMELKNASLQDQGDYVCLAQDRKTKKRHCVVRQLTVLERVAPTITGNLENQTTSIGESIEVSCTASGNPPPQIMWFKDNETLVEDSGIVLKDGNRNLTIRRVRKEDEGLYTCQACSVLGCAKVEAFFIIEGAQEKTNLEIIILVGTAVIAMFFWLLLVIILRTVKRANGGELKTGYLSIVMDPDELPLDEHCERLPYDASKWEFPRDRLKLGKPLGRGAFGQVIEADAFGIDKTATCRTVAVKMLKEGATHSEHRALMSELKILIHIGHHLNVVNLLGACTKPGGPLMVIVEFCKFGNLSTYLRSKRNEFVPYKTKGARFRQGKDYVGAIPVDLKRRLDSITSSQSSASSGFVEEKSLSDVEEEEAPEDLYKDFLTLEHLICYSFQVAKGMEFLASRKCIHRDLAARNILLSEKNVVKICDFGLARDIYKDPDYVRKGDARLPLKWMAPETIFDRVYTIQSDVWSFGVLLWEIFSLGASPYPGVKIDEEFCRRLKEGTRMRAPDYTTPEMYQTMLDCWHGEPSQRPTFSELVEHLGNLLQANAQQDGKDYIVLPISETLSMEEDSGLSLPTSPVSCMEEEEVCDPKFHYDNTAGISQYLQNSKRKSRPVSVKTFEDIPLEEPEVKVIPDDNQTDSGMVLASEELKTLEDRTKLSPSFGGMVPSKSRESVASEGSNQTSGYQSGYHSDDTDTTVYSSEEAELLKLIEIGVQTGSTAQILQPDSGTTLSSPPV

[9] = target: T4, Cyclin-dependent kinase 1/cyclin B1; assay: Inhibition of recombinant CDK1/GST-fused cyclin B (unknown origin) expressed in baculovirus infected insect Sf9 cells by substrate phosphorylation assay in presence of [33P]-gamma adenosine triphosphate
Carbonic anhydrase 2 = Carbonic anhydrase 2 (Homo sapiens, UniProt P00918); assay: Inhibition of carbonic anhydrase-2 (unknown origin)
MCF7 = assay: Cytotoxicity against human MCF7 cells assessed as growth inhibition after 96 hrs; assay type: functional, cell-based; settings: MCF7, 96 h
[10] = target: T5, Cyclin-dependent kinase 2/cyclin E1; assay: Inhibition of CDK2/cyclin E (unknown origin) expressed in baculovirus infected insect Sf9 cells assessed as inhibition of GST-tagged Rb phosphorylation after 30 mins in presence of [33P]-ATP
[11] = Chemical stability of the compound in phosphate buffer assessed as remaining compound at pH 1.2 at 37 degC after 3 hrs; assay type: physicochemical; settings: read-out: Stability
[12] = target: T3, Cyclin-dependent kinase 4/cyclin D1; assay: Inhibition of CDK4/cyclin D1 (unknown origin) expressed in baculovirus infected insect Sf9 cells assessed as inhibition of GST-tagged Rb phosphorylation after 30 mins in presence of [33P]-ATP
HCT-116 = assay: Cytotoxicity against human HCT116 cells assessed as growth inhibition after 3 days by MTT assay; assay type: functional, cell-based; settings: HCT-116, 72 h
Jurkat = assay: Cytotoxicity against human Jurkat cells assessed as cell viability after 72 hrs by resazurin assay; assay type: functional, cell-based
MDA-MB-468 = assay: Antiproliferative activity against Rb-negative human MDA-MB-468 cells assessed as inhibition of [14C]-thymidine incorporation into DNA preincubated for 24 hrs followed by [14C]-thymidine addition measured after 72 hrs by beta plate counting analysis; assay type: cell-based

**Q.** For `N[S+]([O-])c1ccc(/N=N/c2ccc(O)[nH]c2=O)cc1` (stereo not drawn), which IC50 [1] is on record?
**A.** 45 µM

**Q.** For `Cc1nc2ccc(-c3ccnc(Nc4ccc(N5CCNCC5)cn4)n3)cc2n1C(C)C`, which IC50 [2] is on record?
**A.** 42 nM

**Q.** What about the INH [3] of the same molecule?
**A.** 0.2 µM

**Q.** And the IC50 [4]?
**A.** 2 nM

**Q.** And the IC50 [5]?
**A.** 222 nM

**Q.** What does the source list for `CC1=C(C(=O)OC2CCCCC2)C(c2ccc([N+](=O)[O-])cc2)C2=C(CC(C)(C)CC2=O)N1` (stereo not drawn)?
**A.** IC50 [6]: 71 µM; IC50 (MDA-MB-231): 4 µM

**Q.** What does the source list for `C[C@H](CO)Nc1nc(Nc2ccc(S(N)(=O)=O)cc2)ncc1Br`?
**A.** IC50 [7]: 4 nM; IC50 [8]: 34 nM; IC50 [9]: 500 nM; IC50 (Carbonic anhydrase 2): 514 nM; IC50 (MCF7): 266 nM

**Q.** Which IC50 [10] does the source give for `CC(N)c1csc(/C=N/Nc2ncnc3sc(C(C)(C)C)cc23)n1` (stereo not drawn) here?
**A.** 830 nM

**Q.** What about the remaining at 3 h [11] of the same molecule?
**A.** 81%

**Q.** And the IC50 [12]?
**A.** 19 nM

**Q.** What about the IC50 (HCT-116) of the same molecule?
**A.** 177 nM

**Q.** For `C[C@@H](O)[C@@H](C)Nc1nc(Nc2ccc([S+](N)[O-])cc2)ncc1Br` (stereo partly drawn), which IC50 [7] is on record?
**A.** 10 nM

**Q.** What about the IC50 [8] of the same molecule?
**A.** 59 nM

**Q.** What about the IC50 [9] of the same molecule?
**A.** 10 nM

**Q.** What about the IC50 (Carbonic anhydrase 2) of the same molecule?
**A.** 403 nM

**Q.** What about the IC50 (MCF7) of the same molecule?
**A.** 30 nM

**Q.** For `CC(N)c1csc(/C=N/Nc2ncnc3sc(C(C)C(C)C)cc23)n1` (stereo not drawn), which IC50 [10] is on record?
**A.** 880 nM

**Q.** What about the remaining at 3 h [11] of the same molecule?
**A.** 83%

**Q.** And the IC50 [12]?
**A.** 22 nM

**Q.** What about the IC50 (HCT-116) of the same molecule?
**A.** 315 nM

**Q.** Which results are given for `COc1ccc(Nc2nccc(-c3ccc4nc(C)n(C(C)C)c4c3)n2)cc1`?
**A.** IC50 [4]: 4 nM; IC50 [5]: 4 nM

**Q.** For `CC[S@@](=N)(=O)c1ccc(Nc2ncc(Br)c(N[C@H](C)[C@@H](C)O)n2)cc1`, which IC50 [7] is on record?
**A.** 2 nM

**Q.** And the IC50 [8]?
**A.** 32 nM

**Q.** And the IC50 [9]?
**A.** 3 nM

**Q.** What about the IC50 (Carbonic anhydrase 2) of the same molecule?
**A.** > 10000 nM

**Q.** And the IC50 (MCF7)?
**A.** 44 nM

**Q.** Which IC50 [10] does the source give for `CC(C)(C)c1cc2c(N/N=C/c3nccs3)ncnc2s1` here?
**A.** 200 nM

**Q.** And the remaining at 3 h [11]?
**A.** 79%

**Q.** What about the IC50 [12] of the same molecule?
**A.** 41 nM

**Q.** What about the IC50 (HCT-116) of the same molecule?
**A.** 419 nM

**Q.** Which IC50 [2] does the source give for `Cc1nc2ccc(-c3ccnc(Nc4ccc(CN5CCN(C(C)C)CC5)cn4)n3)cc2n1C(C)C` here?
**A.** 89 nM

**Q.** What about the INH [3] of the same molecule?
**A.** 2.2 µM

**Q.** What about the IC50 [4] of the same molecule?
**A.** 2 nM

**Q.** And the IC50 [5]?
**A.** 1010 nM

**Q.** For `CN(C)C/C=C/C(=O)Nc1ccc(C(=O)Nc2cccc(Nc3ncc(Cl)c(-c4c[nH]c5ccccc45)n3)c2)cc1`, which IC50 (Jurkat) is on record?
**A.** 50 nM

**Q.** For `C[C@@H](O)[C@@H](C)Oc1nc(Nc2ccc([S+](N)[O-])cc2)ncc1Br` (stereo partly drawn), which IC50 [7] is on record?
**A.** 9 nM

**Q.** And the IC50 [8]?
**A.** 122 nM

**Q.** What about the IC50 [9] of the same molecule?
**A.** 4 nM

**Q.** And the IC50 (MCF7)?
**A.** 48 nM

**Q.** Which IC50 (Carbonic anhydrase 2) does the source give for `C[C@@H](O)[C@@H](C)Oc1nc(Nc2ccc([S@](=N)(=O)C3CC3)cc2)ncc1C(F)(F)F` [RONICICLIB] here?
**A.** > 10000 nM

**Q.** With `CC(=O)c1c(C)c2cnc(Nc3ccc(N4CCNCC4)cn3)nc2n(C2CCCC2)c1=O` [PALBOCICLIB] as the molecule, how does the IC50 (MDA-MB-468) read?
**A.** > 3000 nM

**Q.** Which results are given for `C#CCNc1nc(Nc2ccccc2)ncc1Br`?
**A.** IC50 [7]: 100 nM; IC50 [9]: 100 nM; IC50 (MCF7): 4000 nM

**Q.** With `CC(Nc1cc(N2CCOCC2)ccc1[N+](=O)[O-])C12CC3CC(CC(C3)C1)C2` (stereo not drawn) as the molecule, how does the IC50 [6] read?
**A.** 27 µM

**Q.** And the IC50 (MDA-MB-231)?
**A.** > 50 µM

**Q.** Which IC50 (MCF7) does the source give for `C[C@@H](O)[C@@H](C)Oc1nc(Nc2ccc(S(=N)(=O)C3CC3)cc2)ncc1C(F)(F)F` (stereo partly drawn) [RONICICLIB] here?
**A.** 15 nM
